Reference: PubChem BioAssay AID2060503 (Molecular Pharmacology Branch, DTP, NCI, 2025)

Test system: 817829-284-R-J1-PDC complex spheroids, viability
Experiment: Anticancer human tumor 817829-284-R-J1-PDC patient-derived colon adenocarcinoma cell line growth inhibition [GQUAD]
Conditions: for IC50: curve of first compound; for viability, T/C: stronger effect = lower value
Procedure, shortened: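 Tumor cells were grown as complex spheroids with HUVEC endothelial cells and mesenchymal stem cells as stroma. G-quadruplex stabilizers were combined with targeted agents over half-log dilutions from near the clinical Cmax, or from 10 microM.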

[1] = second compound 0.0316 µM, first compound 0.0316 µM
[2] = second compound 0.0316 µM, first compound 0.1 µM
[3] = second compound 0.0316 µM, first compound 0.316 µM
[4] = second compound 0.0316 µM, first compound 1 µM
[5] = second compound 0.0316 µM, first compound 3.16 µM
[6] = second compound 0.0316 µM, first compound 10 µM
[7] = second compound 0.1 µM, first compound 0.0316 µM
[8] = second compound 0.1 µM, first compound 0.1 µM
[9] = second compound 0.1 µM, first compound 0.316 µM
[10] = second compound 0.1 µM, first compound 1 µM
[11] = second compound 0.1 µM, first compound 3.16 µM
[12] = second compound 0.1 µM, first compound 10 µM
[13] = second compound 0.316 µM, first compound 0.0316 µM
[14] = second compound 0.316 µM, first compound 0.1 µM
[15] = second compound 0.316 µM, first compound 0.316 µM
[16] = second compound 0.316 µM, first compound 1 µM
[17] = second compound 0.316 µM, first compound 3.16 µM
[18] = second compound 0.316 µM, first compound 10 µM
[19] = second compound 1 µM, first compound 0.0316 µM
[20] = second compound 1 µM, first compound 0.1 µM
[21] = second compound 1 µM, first compound 0.316 µM
[22] = second compound 1 µM, first compound 1 µM
[23] = second compound 1 µM, first compound 3.16 µM
[24] = second compound 1 µM, first compound 10 µM
[25] = second compound 3.16 µM, first compound 0.0316 µM
[26] = second compound 3.16 µM, first compound 0.1 µM
[27] = second compound 3.16 µM, first compound 0.316 µM
[28] = second compound 3.16 µM, first compound 1 µM
[29] = second compound 3.16 µM, first compound 3.16 µM
[30] = second compound 3.16 µM, first compound 10 µM
[31] = second compound 10 µM, first compound 0.0316 µM
[32] = second compound 10 µM, first compound 0.1 µM
[33] = second compound 10 µM, first compound 0.316 µM
[34] = second compound 10 µM, first compound 1 µM
[35] = second compound 10 µM, first compound 3.16 µM
[36] = second compound 10 µM, first compound 10 µM
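Note: spheroids exposed to agents for 7 days before readout.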
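Throughout, for viability, T/C: percent viability relative to DMSO vehicle control taken as 100%.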

CC(C)n1c(=O)n(C)c2cnc3cc(F)c(-c4ccc(OCCCN5CCCCC5)nc4)cc3c21 + Cc1[nH]c2ccc(F)cc2c1-c1nc2c3cccnc3c3ncccc3c2[nH]1
IC50 (second compound 0.0316 µM): > 10 µM | IC50 (second compound 0.1 µM): > 10 µM | IC50 (second compound 0.316 µM): > 10 µM | IC50 (second compound 1 µM): 7.83 µM | IC50 (second compound 3.16 µM): 4.57 µM | IC50 (second compound 10 µM): 0.549 µM | viability, T/C [1]: 120% | viability, T/C [2]: 82.6% | viability, T/C [3]: 84.8% | viability, T/C [4]: 94.4% | viability, T/C [5]: 104% | viability, T/C [6]: 94.9% | viability, T/C [7]: 90.8% | viability, T/C [8]: 106% | viability, T/C [9]: 95.8% | viability, T/C [10]: 107% | viability, T/C [11]: 107% | viability, T/C [12]: 117% | viability, T/C [13]: 79.7% | viability, T/C [14]: 99.8% | viability, T/C [15]: 103% | viability, T/C [16]: 103% | viability, T/C [17]: 117% | viability, T/C [18]: 103% | viability, T/C [19]: 87.5% | viability, T/C [20]: 104% | viability, T/C [21]: 120% | viability, T/C [22]: 102% | viability, T/C [23]: 115% | viability, T/C [24]: 35% | viability, T/C [25]: 76.6% | viability, T/C [26]: 90.9% | viability, T/C [27]: 64.6% | viability, T/C [28]: 78% | viability, T/C [29]: 69.8% | viability, T/C [30]: 7.73% | viability, T/C [31]: 65.2% | viability, T/C [32]: 73.3% | viability, T/C [33]: 49.2% | viability, T/C [34]: 46.5% | viability, T/C [35]: 21.9% | viability, T/C [36]: 5.4%

CC1COCCN1c1cc(-c2ccnn2C)c2ccnc(-c3ccn[nH]3)c2n1 (stereo unspecified) + Cc1[nH]c2ccc(F)cc2c1-c1nc2c3cccnc3c3ncccc3c2[nH]1
IC50 (second compound 0.0316 µM): 0.0487 µM | IC50 (second compound 0.1 µM): < 0.0316 µM | IC50 (second compound 0.316 µM): < 0.0316 µM | IC50 (second compound 1 µM): < 0.0316 µM | IC50 (second compound 3.16 µM): < 0.0316 µM | IC50 (second compound 10 µM): < 0.0316 µM | viability, T/C [1]: 72.5% | viability, T/C [2]: 12.9% | viability, T/C [3]: 9.49% | viability, T/C [4]: 4.92% | viability, T/C [5]: 6.02% | viability, T/C [6]: 4.47% | viability, T/C [7]: 46.3% | viability, T/C [8]: 19.1% | viability, T/C [9]: 8.08% | viability, T/C [10]: 6.91% | viability, T/C [11]: 5.94% | viability, T/C [12]: 4.22% | viability, T/C [13]: 48.6% | viability, T/C [14]: 19.7% | viability, T/C [15]: 9.27% | viability, T/C [16]: 7.38% | viability, T/C [17]: 5.29% | viability, T/C [18]: 4.46% | viability, T/C [19]: 38.1% | viability, T/C [20]: 19.6% | viability, T/C [21]: 7.66% | viability, T/C [22]: 6.25% | viability, T/C [23]: 5.62% | viability, T/C [24]: 4.21% | viability, T/C [25]: 35.8% | viability, T/C [26]: 8.61% | viability, T/C [27]: 5.3% | viability, T/C [28]: 3.85% | viability, T/C [29]: 3.53% | viability, T/C [30]: 3.13% | viability, T/C [31]: 28.2% | viability, T/C [32]: 4.74% | viability, T/C [33]: 3.18% | viability, T/C [34]: 3.81% | viability, T/C [35]: 2.63% | viability, T/C [36]: 2.34%

O=C(c1cc(Cc2n[nH]c(=O)c3ccccc23)ccc1F)N1CCN(C(=O)C2CC2)CC1 + Cc1[nH]c2ccc(F)cc2c1-c1nc2c3cccnc3c3ncccc3c2[nH]1
IC50 (second compound 0.0316 µM): > 10 µM | IC50 (second compound 0.1 µM): > 10 µM | IC50 (second compound 0.316 µM): > 10 µM | IC50 (second compound 1 µM): > 10 µM | IC50 (second compound 3.16 µM): 4.16 µM | IC50 (second compound 10 µM): 1.07 µM | viability, T/C [1]: 103% | viability, T/C [2]: 85.7% | viability, T/C [3]: 106% | viability, T/C [4]: 87.3% | viability, T/C [5]: 97.2% | viability, T/C [6]: 63.3% | viability, T/C [7]: 94% | viability, T/C [8]: 109% | viability, T/C [9]: 88.3% | viability, T/C [10]: 98.8% | viability, T/C [11]: 95.5% | viability, T/C [12]: 60% | viability, T/C [13]: 97.7% | viability, T/C [14]: 99.7% | viability, T/C [15]: 97.9% | viability, T/C [16]: 96.6% | viability, T/C [17]: 95.4% | viability, T/C [18]: 60.8% | viability, T/C [19]: 85.9% | viability, T/C [20]: 115% | viability, T/C [21]: 97.8% | viability, T/C [22]: 97.4% | viability, T/C [23]: 89.4% | viability, T/C [24]: 62% | viability, T/C [25]: 98.9% | viability, T/C [26]: 98.5% | viability, T/C [27]: 97.3% | viability, T/C [28]: 93.8% | viability, T/C [29]: 54.5% | viability, T/C [30]: 35.6% | viability, T/C [31]: 45.4% | viability, T/C [32]: 46.9% | viability, T/C [33]: 56.7% | viability, T/C [34]: 54.7% | viability, T/C [35]: 37.6% | viability, T/C [36]: 20.7%
